The values that follow come from PMC3832545 (PLoS ONE, 2013).

The test system of data set [1] is female and male rats. As to conditions: supra-pharmacological doses, ref [47]; cited from earlier work. From the text: However, the in vitro ...
Data set [2] is described as follows: Mouse C-peptide in plasma after sc injection in DIO-mice. Format: in vivo. As to conditions: 600 nmol/kg sc, P<0.05. As to the method:
Before experiments were initiated, the systemic levels of mouse insulin were measured using a Rat/Mouse Insulin ELISA kit (Millipore Corp., Bilerica, MA, USA), according to manufacturer’s instructions. […] Mouse C-peptide was assayed with Rat/Mouse C-peptide 2 ELISA kit (Millipore), according to manufacturer’s instructions. […] Insulin X10 was measured in mouse plasma using a wash-LOCI assay, as also described recently. See Materials S1 for detailed information regarding these assays.
At termination of experiments whole blood was collected in EDTA-coated tubes (BD Biosciences) by cardiac puncture. Blood plasma was isolated by centrifugation for 10 min at 1500 rpm and thereafter stored at -80 °C until analysis. Mouse C-peptide was assayed with Rat/Mouse C-peptide 2 ELISA kit (Millipore) according to manufacturer’s instructions. […] In initial tests the sensitivity and specificity of the assay in mouse plasma was confirmed. […] After incubation for another 30 min at 21-22 °C chemiluminescence was measured in an Envision plate reader (Perkin Elmer). […] Finally 10 µl of streptavidin coated donor beads were added, incubated as above and immediately after this chemiluminescence was measured using an Envision plate reader. […]

Data set [3] concerns female Sprague Dawley rats. As to conditions: rat, in vivo; cited from earlier work.
Data set [4] deals with IGF-1 receptor (IGF-1R). As to conditions: ref [10], [11]; cited from earlier work.
For data set [5], the system named is P-Akt (Ser473). Nature of the data set: Signalling in MC38 cells, Western blot P-Akt. In kind it is cell-based, mouse. As to conditions: covers both Akt (Ser473) and p70S6K (Thr389). As to the method: MC38 cells (mouse cell line described by Corbett et al. (1975) and generously provided by Dr. Pnina Brodt, McGill University, Montreal, QC) and MCF-7 cells (ATCC, Manassas, VA, USA), were cultivated in DMEM medium containing 4.5 g/l glucose (Wisent Inc., Montreal, QC, Canada) supplemented with 10% (v/v) fetal bovine serum (FBS, Invitrogen) and 20 μg/ml gentamicin (Sandoz Canada, Boucherville, QC, Canada) (i.e., growth medium). Cells used in animal experiments were trypsinized, washed once in PBS and resuspended in PBS (4°C) at a concentration of 5.0 × 10^6 cells/ml and kept on ice until sc injection in the mice. For signalling experiments MC38 cells were cultivated in growth medium for two days until 80-90% confluent, cell cultures were then rinsed once in PBS (room temperature), and starvation medium (similar to growth medium, except it contained only 0.25% (v/v) FBS and no phenol red) was added for 3 h. […] Each signalling experiment comprised two replicate samples per treatment and three independent experiments were performed. […] Data describing IR and IGF-1R expression in various mouse tissues were analysed in a one-way ANOVA followed by pairwise comparisons between tissues using multiple t-test with Bonferroni correction.
(In general: Immunoblotting shows a protein as a band on a membrane.)

For data set [6], the system named is insulin receptor (IR). As to conditions: cited from earlier work.
For data set [7] the following is noted: cited from earlier work. From the text: Further studies are needed to clarify if this effect is also observed during other experimental conditions. However, our in vivo data for ...

As for “IGF-1: recombinant human IGF-1 (Increlex, IPSEN Pharma GmbH)”, the “Incidence of mammary carcinoma and pheochromocytoma” value in data set [1] is “increased the incidence”.
Consider human insulin [HI], for which the “Levels of C-peptide in plasma 0.5 h after treatment compared to >5 h” value in data set [2] is “significantly decreased”.
Take insulin analog B10Asp [X10]: in data set [3], the “Incidence of spontaneous mammary tumors” value was “increased the incidence”. Moreover, in data set [2], the “Levels of C-peptide in plasma 0.5 h after treatment compared to >5 h” value is recorded as “significantly decreased”. Also, the “Increase of binding affinity to the IGF-1 receptor (vs human insulin)” value in data set [4] is 3- to 5 fold. The “Increase of phosphorylation of Akt (Ser473) and p70S6K (Thr389) compared to HI” value in data set [5] is listed as 35–90%. Besides, the “Increase of binding affinity to the insulin receptor (vs human insulin)” value in data set [6] (ref [10], [11]) was 2 fold. Moreover, in data set [6] (ref [12]), the “Off-rate from the IR compared to native human insulin” value is recorded as “decreased off-rate”. For the same substance, the “Mitogenic potency relative to HI, some cell lines” value in data set [7] (ref [10], [13], [46]) is reported as 10 fold. Further, in data set [7] (ref [14]), the “Mitogenic potential relative to HI in vitro” value is 3–15 fold.
